{"source": "ChEMBL document CHEMBL4706561", "about": "“Efficient chemoenzymatic synthesis of fluorinated sialyl Thomsen-Friedenreich antigens and investigation of their characteristics” (Eur J Med Chem, 2020)", "biological_target": "T1, Sialidase (Clostridium perfringens, UniProt P10481)", "T1 sequence (P10481 whole entry)": "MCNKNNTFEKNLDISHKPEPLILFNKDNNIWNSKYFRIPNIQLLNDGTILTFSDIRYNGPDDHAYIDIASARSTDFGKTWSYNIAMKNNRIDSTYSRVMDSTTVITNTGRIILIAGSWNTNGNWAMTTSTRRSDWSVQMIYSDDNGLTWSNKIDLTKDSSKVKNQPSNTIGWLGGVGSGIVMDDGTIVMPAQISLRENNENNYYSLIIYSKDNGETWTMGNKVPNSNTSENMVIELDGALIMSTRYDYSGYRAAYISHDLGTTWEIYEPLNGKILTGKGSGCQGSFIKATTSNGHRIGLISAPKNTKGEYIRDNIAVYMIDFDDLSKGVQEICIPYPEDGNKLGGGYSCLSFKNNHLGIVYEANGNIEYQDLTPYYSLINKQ", "test": "Stability in D2O assessed as Clostridium perfringens sialidase-mediated hydrolysis by measuring betaKdn formation at 10 mM measured after 12 hrs by 1H NMR spectroscopy", "assay_type": "ADME", "settings": "10000 µM", "data": [{"compound": "CC(=O)N[C@H]1[C@@H](OCCCN=[N+]=[N-])O[C@H](CO)[C@H](O)[C@@H]1O[C@@H]1O[C@H](CF)[C@H](O)[C@H](O[C@]2(C(=O)O)C[C@H](O)[C@@H](O)[C@H]([C@H](O)[C@H](O)CO)O2)[C@H]1O", "values": [{"measurement": "Drug metabolism", "value": "Metabolite_Notdetected"}]}]}
